Like-named read-outs stand apart in the source and are kept apart here.
Tests used:
Assay in all cases: Ellman microplate assay, Michaelis-Menten fit
Conditions in all cases: apparent, diluted plasma, 0.1 M phosphate pH 7.2, mean of 3 individuals
[1] = system: T1, plasma ChE / plasma BChE of M. bassanus; format: biochemical, Morus bassanus
T1 construct: native enzyme in diluted EDTA plasma, not purified
Text: Ellman microplate assay, Michaelis-Menten fit on plasma ChE / plasma BChE of M. bassanus

[2] = system: T2, plasma ChE / plasma BChE of C. ciconia; format: biochemical
T2 construct: native enzyme in diluted EDTA plasma, not purified
Text: Ellman microplate assay, Michaelis-Menten fit on plasma ChE / plasma BChE of C. ciconia

[3] = system: T3, plasma ChE / plasma BChE of A. cinerea; format: biochemical, Ardea cinerea
T3 construct: native enzyme in diluted EDTA plasma, not purified
Text: Ellman microplate assay, Michaelis-Menten fit on plasma ChE / plasma BChE of A. cinerea

`CCCC(=O)SCC[N+](C)(C)C` [S-butyrylthiocholine iodide] was tested, and the Km ([1]; read-out: BuSCh / Km) was 19.4 µM, the Km ([2]; read-out: BuSCh / Km) was 4.8 µM and the Km ([3]; read-out: BuSCh / Km) was 167 µM.

In the case of `CC(=O)SCC[N+](C)(C)C` [acetylthiocholine iodide], the Km ([1]; read-out: AcSCh / Km) is reported as 15.3 µM, the Km ([2]; read-out: AcSCh / Km) is reported as 10.7 µM and the Km ([3]; read-out: AcSCh / Km) is reported as 247 µM.

`CCC(=O)SCC[N+](C)(C)C` [propionylthiocholine iodide] was tested, and the Km ([1]; read-out: PrSCh / Km) was 21.4 µM, the Km ([2]; read-out: PrSCh / Km) was 6.1 µM and the Km ([3]; read-out: PrSCh / Km) was 150 µM.

From paper PMC3314689, “Characterization of Cholinesterases in Plasma of Three Portuguese Native Bird Species: Application to Biomonitoring” (PLoS ONE, 2012)
